Measured values as given in patent publication US9266813B2, “Stilbenoid compound as inhibitor for squamous carcinoma and hepatoma and uses thereof” (AnnCare Bio-Tech Center Inc., priority 2013, dated 2016).
Values after ≈ are worked out from the molar mass of the structure shown. Read-outs that look alike come from different tables or passages of the source.

Assays:
Hep3B cells = test: MTT assay, antiproliferation on Hep3B cells; type: cell-based; settings: for IC50: Homo sapiens, Hep3B cells, MTT; for anticancer activity compared with resveratrol and pterostilbene: Hep 3B and CAR cells, Table 1
Protocol: (§1) Antiproliferations of compound 2-4 were determined by an improved MTT assay. The CAR cells were individually plated at a density of 2×10^4 cells/well onto 96-well plates and treated with Dimethyl sulfoxide (DMSO) alone (0.5% (v/v) in media served as a vehicle control) and various concentrations (0, 25, 50, 75 and 100 μM) of compound 2-4 for 24 and 48 hours. Following the above treatments, the supernatant was discarded before a 100 μL solution of MTT (500 μg/ml) was added to each well for 4 hours at 37 °C. After incubation, the medium was replaced by the addition of 200 μL DMSO to solubilize the violet formazan crystal produced from MTT. The absorbance of the dissolved formazan grained within the cells was measured at 570 nm by a microplate reader to calculate viability (data shown as % of control).
(§2) Please refer to Table 1. Hep3B cells and CAR cells were treated by different concentrations of the compounds of the invention for 48 and 72 hours, and the antiprolifieration effect of such compounds was evaluated using MTT assay. Data are presented as IC50 (μM), the concentration of 50% proliferation-inhibitory effect.
The anti-proliferative ability of compound 2-4 in hepatocellular carcinoma was evaluated in Hep3B cells using MTT assay. Hep3B cells were treated with various concentrations of compound 2-4 for 48 and 72 hours.

CAR cells = test: MTT assay, antiproliferation on cisplatin-resistant head and neck squamous carcinoma (CAR) cells; type: cell-based, human; settings: Homo sapiens, CAR cells, MTT
Protocol: The human head and neck carcinoma cell line CAL27 was obtained from American Tissue Culture Collection (ATCC). The cisplatin-resistant cell line CAR (CAL27-cisplatin resistance) was established by clonal selection of CAL27 using 10 cycles of 1 passage treatment with 10-80 μM of cisplatin (Sigma-Aldrich Corp. (St. Louis, Mo., USA) followed by a recovery period of another passage. CAR cells were cultivated in Dulbecco's modified Eagle's medium (DMEM) supplemented with 10% FBS, 100 μg/mL streptomycin, 100 U/mL penicillin G, 2 mM L-glutamine (Gibco by Life Technologies (Carlsbad, Calif., USA)) and 80 μM of cisplatin (Sigma-Aldrich Corp. (St. Louis, Mo., USA).
as §1, §2
MTT assay was utilized and CAR cells were treated with compound 2-4 in different concentration for 24, 48 and 72 hours. […] The IC50 after 72 hours of treatment was 50 μM.

Water solubility assay = type: physicochemical; settings: read-out: Water solubility, Content
Description: The water solubility of the compounds of the present invention can be determined by methods known in the art and the result is shown in Table 3.

[1] = dose up to 3.0 g/kg/day; cited from earlier work
[2] = 48 hours, read-out: Hep 3B (IC50 (μM)) 48 hours
[3] = 72 hours, read-out: Hep 3B (IC50 (μM)) 72 hours
[4] = 48 hours, read-out: CAR (IC50 (μM)) 48 hours
[5] = 72 hours, read-out: CAR (IC50 (μM)) 72 hours

IC50 (Hep3B cells; [2]) | IC50 (Hep3B cells; [3]) | IC50 (CAR cells; [4]) | IC50 (CAR cells; [5]) | solubility (Water solubility assay) | SMILES | anticancer activity compared with resveratrol and pterostilbene (Hep3B cells) | 28 days subchronic toxicity [1]
144 µM | 47.8 µM | 169 µM | 133 µM | 52.9 µg/mL (≈ 154 µM) | CC(CO)(CO)C(=O)Oc1ccc(/C=C/c2cc(O)cc(O)c2)cc1 [Compound 3-5] |  | 
54.2 µM | 36.8 µM | 105 µM | 113 µM | 136 µg/mL (≈ 295 µM) | CC(CO)(CO)C(=O)Oc1ccc(/C=C/c2cc(O)cc(OC(=O)C(C)(CO)CO)c2)cc1 [Compound 3-6, 3,4′-[2,2-Bis(hydroxymethyl)propanoxy]-resveratrol] | more potent anticancer activity than resveratrol and pterostilbene | 
83.5 µM | 68.9 µM | 54.9 µM | 113 µM | 410 µg/mL (≈ 1190 µM) | CC(CO)(CO)C(=O)Oc1cc(O)cc(/C=C/c2ccc(O)cc2)c1 [Compound 5-3] |  | 
137 µM | 55.3 µM | 91.4 µM | 77 µM | 455 µg/mL (≈ 988 µM) | CC(CO)(CO)C(=O)Oc1cc(/C=C/c2ccc(O)cc2)cc(OC(=O)C(C)(CO)CO)c1 [Compound 6-3, 3,5-[2,2-Bis(hydroxymethyl)propanoxy]-resveratrol] |  | 
70.8 µM | 48.7 µM | 64.2 µM | 67.3 µM | 53.4 µg/mL (≈ 143 µM) | COc1ccc(/C=C/c2cc(OC)cc(OC(=O)C(C)(CO)CO)c2)cc1 [Compound 7-3, 3,4′methyl-5-[2,2-Bis(hydroxymethyl)propanoxy]-resveratrol] | more potent anticancer activity than resveratrol and pterostilbene | 
106 µM | 66.5 µM | 56.5 µM | 59.8 µM | > 1000 µg/mL | COc1cc(/C=C/c2ccc(OC(=O)C(C)(CO)CO)cc2)cc(OC(=O)C(C)(CO)CO)c1 [Compound 8-3, 3-methyl-5,4′-[2,2-Bis(hydroxymethyl)propanoxy]-resveratrol] |  | 
148 µM | 62 µM | 103 µM | 116 µM | 306 µg/mL (≈ 715 µM) | CC(=O)Oc1cc(/C=C/c2ccc(OC(=O)C(C)(CO)CO)cc2)cc(OC(C)=O)c1 [Compound 9-4, 3,5-acetyl-4′-[2,2-Bis(hydroxymethyl)propanoxy]-resveratrol] |  | 
> 200 µM | > 200 µM | 122 µM | 119 µM | > 1000 µg/mL | CC(=O)Oc1cc(/C=C/c2ccc(OC(=O)C(C)(CO)CO)cc2)cc(OC(=O)C(C)(CO)CO)c1 [Compound 10-4, 3-acetyl-5,4′-[2,2-Bis(hydroxymethyl)propanoxy]-resveratrol] |  | 
88.9 µM | 33.2 µM | 67.3 µM | 64 µM | 35.8 µg/mL (≈ 99.9 µM) | COc1cc(O)cc(/C=C/c2ccc(OC(=O)C(C)(CO)CO)cc2)c1 [Compound 11-3, 3-methyl-4′-[2,2-Bis(hydroxymethyl)propanoxy]-resveratrol] | more potent anticancer activity than resveratrol and pterostilbene | 
85.2 µM | 36.8 µM | 52 µM | 50.3 µM | 81.9 µg/mL (≈ 205 µM) | COc1cc(/C=C/c2ccc(OC(=O)C(C)(CO)CO)cc2)cc(OC(C)=O)c1 [Compound 12-3, 5-acetyl-3-methyl-4′-[2,2-Bis(hydroxymethyl)propanoxy]-resveratrol] | more potent anticancer activity than resveratrol and pterostilbene | 
53.4 µM | 39.1 µM | 73.9 µM | 70.8 µM | 337 µg/mL (≈ 710 µM) | COc1ccc(/C=C/c2cc(OC(=O)C(C)(CO)CO)cc(OC(=O)C(C)(CO)CO)c2)cc1 [Compound 13-3, 3,5-[2,2-Bis(hydroxymethyl)propanoxy]-4′-methyl-resveratrol] | more potent anticancer activity than resveratrol and pterostilbene | 
94.7 µM | 59.5 µM | > 200 µM | > 200 µM | < 10 µg/mL | COc1cc(/C=C/c2ccc(OC(=O)C3OC(C)(C)OC3C3COC(C)(C)O3)cc2)cc(OC)c1 [Compound 14-5, Pterostilbene D-Ribonic Acid Diacetonide] |  | 
75.3 µM | 48.9 µM | 100 µM | 98.3 µM | 48 µg/mL (≈ 187 µM) | COc1cc(/C=C/c2ccc(O)cc2)cc(OC)c1 [Pterostilbene, reference compound] |  | no significant adverse biochemical parameters and toxic effects were noted

SMILES | IC50 (Hep3B cells; [2]) | IC50 (Hep3B cells; [3]) | IC50 (CAR cells; [4]) | IC50 (CAR cells; [5]) | solubility (Water solubility assay) | anticancer activity compared with resveratrol and pterostilbene (Hep3B cells) | 28 days subchronic toxicity [1]
CC(CO)(CO)C(=O)Oc1ccc(/C=C/c2cc(OC(=O)C(C)(CO)CO)cc(OC(=O)C(C)(CO)CO)c2)cc1 [Compound 4-3, 3,5,4′-[2,2-Bis(hydroxymethyl)propanoxy]-resveratrol] | 151 µM | 95 µM | 149 µM | 124 µM | 372 µg/mL (≈ 646 µM) |  | 
Oc1ccc(/C=C/c2cc(O)cc(O)c2)cc1 [Resveratrol, 3,5,4′-trihydroxy-trans-stilbene, reference compound] | 96.4 µM | 51.6 µM | 153 µM | 88.3 µM | 107 µg/mL (≈ 470 µM) |  | 
